US20230331707A1, “PROGRAMMED CELL NECROSIS INHIBITOR, PREPARATION METHOD THEREFOR, AND USE THEREOF” (Shanghai Institute of Organic Chemistry, Chinese Academy of …, priority 2020, published 2023)
Like-named read-outs stand apart in the source and are kept apart here.

Key:
[1] = tested on: phosphorylation of RIPK1 and phosphorylation of downstream protein MLKL; experiment: Programmed necrosis pathway signals by western blot in L929 cells; type: cell-based, mouse
Procedure: (§1) In order to verify whether the compounds of the present invention can inhibit programmed cell necrosis by inhibiting the activity of RIPK1, and to detect the changes in the signal of the programmed necrosis pathway. FADD-deficient Jurkat or L929 cells treated with the compound of the present invention were used, and TNFα was added to induce programmed necrosis. Then the cells were collected and phosphorylation of RIPK1 and oligomerization of MLKL were detected using western blot.
(§2) Methods: FADD-deficient Jurkat cells or L929 cells were cultured in vitro. After growing to the logarithmic growth phase, the cells were collected, centrifuged at 1000 rpm for 5 min, the supernatant was discarded, and the cell concentration was adjusted to 1×10^6/mL. In the 12-well cell culture plate, each well was added with 1 ml of cells, and 0.2 μL of DMSO solution with a concentration of 50 mM drug or pure DMSO control, and pretreated for 1 h. 0.5 μL of TNF α (PBS solution) with a concentration of 100 μg/ml was added to each stimulated group. […] The BCA protein quantification kit was used to detect the protein content of each group, and PIPA lysis buffer was used to adjust the protein amount to make the final volume being 100 μL. […] The resulting sample was incubated with ECL luminescent solution and the luminescent signal was detected.

[2] = tested on: L929 cells; experiment: Inhibition of TNF-induced programmed necrosis of L929 cells (Cell Titer-Glo viability); type: cell-based, mouse
In short: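 Mouse L929 fibroblasts were diluted to 6.25×10^4/ml, plated at 40 μl per well in 384-well plates, and incubated 12 hours at 37° C., 5% CO2. Compounds were added, with SM164 (500 nM) for the combination arm, and pretreated 1 h before TNFα (500 ng/mL). After 14 h, viability was read by Cell Titer-Glo luminescence against unstimulated DMSO controls, and EC50 values were fitted in Prism Graphpad.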

[3] = tested on: FADD−/− Jurkat cells; experiment: Inhibition of TNF-induced programmed necrosis of FADD deficient Jurkat cells (Cell Titer-Glo viability); type: cell-based
In short: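 FADD-deficient human Jurkat T leukemia cells in log phase were adjusted to 2.5×10^5/mL and plated at 40 μl per well in 384-well plates. Compounds were added, with SM164 (50 nM) where used, for a 1 h pretreatment at 37° C. TNFα (50 ng/mL) was then added, and cells were incubated 14 h at 37° C, 5% CO2. Viability was read as ATP luminescence with Cell Titer-Glo after 30 min at room temperature, with unstimulated DMSO wells set as 100%. EC50 values were calculated in Prism Graphpad.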

[4] = tested on: phosphorylation of RIPK1 and phosphorylation of downstream protein MLKL; experiment: Programmed necrosis pathway signals by western blot in FADD-deficient Jurkat cells; type: cell-based, human; conditions: 1.6 nM
Procedure: as §1, §2

## Cn1ncc(C(=O)NCc2ccc(-n3cnc4c(N)ncnc43)cc2)c1Cc1ccccc1 [QY-10-40]
[1]
  inhibitory effect on pathway signals compared with GSK2982772 and Nec-1s: far superior to the other two
[2]; L929 cells
  concentration that essentially completely inhibits TNFα-induced programmed necrosis: above 1 nM
[2]; L929 cells, stimulated with TNFα + SM164, read-out: EC50 (μM) L929 cells (mouse) TNFα + SM164
  EC50: 0.00145 µM
[2]; L929 cells, stimulated with TNFα alone, read-out: EC50 (μM) L929 cells (mouse) TNFα
  EC50: 0.00048 µM
[2]; mouse-derived L929 cells
  inhibition of programmed necrosis (in words): excellently inhibit the occurrence of programmed necrosis
[3]; FADD-deficient Jurkat cells
  concentration that essentially completely inhibits TNFα-induced programmed necrosis: above 1 nM
[3]; FADD−/− Jurkat cells, stimulated with TNFα + SM164, read-out: EC50 (μM) FADD−/− Jurkat cells (human) TNFα + SM164
  EC50: 0.06 nM
[3]; Homo sapiens, Jurkat, read-out: EC50 (μM) FADD−/− Jurkat cells (human) TNFα
  EC50: 0.001 nM
[3]; human FADD-deficient Jurkat cells, TNFα alone or in combination with SM164
  activity of inhibition of programmed necrosis compared with GSK2982772: stronger activity
[4]
  inhibition of phosphorylation of RIPK1 and of downstream protein MLKL: effectively inhibit
